From patent publication US10568819B2, “Skin enhancing compositions and methods” (Sytheon Limited, priority 2016, dated 2020)
Like-named read-outs stand apart in the source and are kept apart here. Blank lines part the entries; values can stand above or below the molecule they belong to.

Assays:
[1] = system: Keratinocytes; experiment: UVA- and UVB-induced formation of immediate CPDs (iCPDs) in keratinocytes; format: cell-based
Protocol: (§1) Given the significance of CPDs in skin aging and damage, a study was undertaken to determine whether compounds of the present invention have the ability to directly protect the genome of skin cells from the mutagenic effect of UV light as evidenced by CPDs inhibition. The study was conducted in accordance with the method described by Mitchell et. al. [Mitchell, D L, The relative cytotoxicity of (6-4) photoproducts and cyclobutane dimers in mammalian cells. Photochem Photobiol, 48(1):51-57, 1988)] pursuant to which UVA- and UVB-induced formation of immediate CPDs (iCPDs) were determined.

[2] = system: Keratinocyte; experiment: UVA-induced delayed formation of CPDs (dCPDs) in keratinocytes; format: cell-based; settings: 25 μg/ml
Protocol: (§2) A second study was carried out, similar to the first, except that this time the analysis was in assessing the efficacy, if any, of the presently taught aryl alkanones in reducing UVA-induced delayed formation of CPDs (dCPDs).

[3] = system: Fibroblasts; experiment: UVA- and UVB-induced formation of immediate CPDs (iCPDs) in fibroblasts; format: cell-based; settings: 25 μg/ml
Protocol: as §1

[4] = system: Fibroblasts; experiment: UVA-induced delayed formation of CPDs (dCPDs) in fibroblasts; format: cell-based; settings: 25 μg/ml
Protocol: as §2

[5] = biological target: iNOS (Homo sapiens, UniProt P35228); experiment: Reduction of iNOS activity; format: biochemical; settings: read-out: Reduction of iNOS activity, Amount used in μM (IC50) values)
Text: Accordingly, an investigation was undertaken to assess the efficacy of compounds according to the present teaching as compared to compounds that are closely structurally related thereto in inhibiting NO product.

[6] = system: NOX; settings: UVA; Fibroblasts; 50 μg/ml
[7] = system: NOX; settings: UVA; Keratinocytes; 50 μg/ml
[8] = Antioxidant power / quenching: singlet oxygen
Protocol: Separately, a study of the singlet oxygen quenching ability of Compound 1 and Compound 7 were evaluated.

[9] = system: ϕX-174 RF bacteriophage supercoiled DNA; experiment: UVA/AGE-albumin-induced DNA strand breaks (QPES); format: biochemical
Protocol: A study was undertaken to determine whether the aryl alkanones of the present invention have the ability to reduce photooxidative stress by physical Quencher of Photo-excited States (QPES) mechanism under UV light employing the method of Wondarak et al, (J Invest Dermatol, 119:489, 2002). Briefly, 100 ng (experiment 1) or 200 ng (experiment 2) of ϕX-174 RF bacteriophage supercoiled DNA was irradiated in the presence of […] of filtered glycated bovine serum albumin (20 mg/ml BSA reacted for 3 weeks with 180 mg/ml glucose at 37° C.) in a final volume of 100 μl. The irradiation was performed in a 96 well plate without lid, with UVA lamp (Ultra-lum UVA-28T at 6.4 mW/cm^2) for 2 h, delivering a total energy of […]. Following irradiation 10 μl of the reaction mixture was mixed with 2 μl of loading buffer, resolved in 1% agarose gel (at 90V for 20 min) and stained with ethidium bromide ([…]). The intact (supercoiled) lower (faster-migrating) band and the UVA-damaged (uncoiled) higher (slower-migrating) band were visualized using Hoefer transilluminator. Photographs of the gels were then processed using NIH ImageJ and ratio of unwound (damaged) to supercoiled (intact) bands was calculated and used to assess the protective activity of test materials.

[10] = Antioxidant power: super oxide anion
[11] = Antioxidant power: hydroxyl radicals
[12] = Antioxidant power: peroxynitrite
[13] = Lipid peroxidation, squalene substrate; format: biochemical; settings: Squalene used as a substrate
[14] = Antioxidant power: peroxyl radicals

Sequence of iNOS (P35228 whole entry, species assumed): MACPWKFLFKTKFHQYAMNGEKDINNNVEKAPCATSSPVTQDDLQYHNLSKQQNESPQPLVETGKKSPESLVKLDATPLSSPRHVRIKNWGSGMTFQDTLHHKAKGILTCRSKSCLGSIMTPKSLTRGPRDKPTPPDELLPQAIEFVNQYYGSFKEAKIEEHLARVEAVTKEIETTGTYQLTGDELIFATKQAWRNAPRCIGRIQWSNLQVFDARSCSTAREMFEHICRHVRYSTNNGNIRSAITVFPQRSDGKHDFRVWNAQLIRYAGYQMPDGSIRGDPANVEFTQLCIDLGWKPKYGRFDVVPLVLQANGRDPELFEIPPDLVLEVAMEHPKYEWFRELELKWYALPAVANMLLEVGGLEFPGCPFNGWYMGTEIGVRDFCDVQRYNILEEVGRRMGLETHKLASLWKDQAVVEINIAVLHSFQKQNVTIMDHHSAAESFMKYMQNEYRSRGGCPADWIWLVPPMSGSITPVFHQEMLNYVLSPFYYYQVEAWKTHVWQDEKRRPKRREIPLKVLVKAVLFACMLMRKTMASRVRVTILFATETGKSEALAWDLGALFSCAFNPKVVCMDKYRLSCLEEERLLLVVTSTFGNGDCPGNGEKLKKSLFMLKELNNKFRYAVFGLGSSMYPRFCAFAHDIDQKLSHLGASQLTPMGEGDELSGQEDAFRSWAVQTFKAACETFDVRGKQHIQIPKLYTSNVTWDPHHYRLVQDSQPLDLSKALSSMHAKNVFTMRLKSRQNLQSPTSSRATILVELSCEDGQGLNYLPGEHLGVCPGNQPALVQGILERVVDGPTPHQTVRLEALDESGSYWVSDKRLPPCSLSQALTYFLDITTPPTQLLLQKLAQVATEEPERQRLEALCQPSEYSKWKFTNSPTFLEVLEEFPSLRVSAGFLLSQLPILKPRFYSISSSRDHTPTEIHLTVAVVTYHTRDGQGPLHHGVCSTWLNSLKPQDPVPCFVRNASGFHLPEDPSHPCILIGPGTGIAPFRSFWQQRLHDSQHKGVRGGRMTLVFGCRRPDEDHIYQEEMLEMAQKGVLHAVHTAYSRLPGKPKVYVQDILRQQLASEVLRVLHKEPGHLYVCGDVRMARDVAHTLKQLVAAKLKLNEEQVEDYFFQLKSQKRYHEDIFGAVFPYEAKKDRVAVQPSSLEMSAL

Molecule: CCOC(=O)C(Cc1ccc(O)c(OC)c1)C(C)=O (centres unmarked) [Compound 2]
- UVA/% Reduction in iCPDs vs. Control ([1]; 25 μg/ml): 26%
- UVB/% Reduction iCPDs vs. Control ([1]; 25 μg/ml): 25%
- UVA/% Reduction in dCPDs vs. control, 0 hr. (Reduction in iCPDs) ([2]; 0 hr.): ^+0 hr.: ↓26%
- UVA/% Reduction in dCPDs vs. control, 1 hr. ([2]; 1 hr.): 1 hr.: ↓13%
- UVA/% Reduction in dCPDs vs. control, 2 hr. ([2]; 2 hr.): 2 hr.: ~0%
- UVB/% Reduction iCPDs vs. Control [3]: 44%

- IC50 [5]: 364 µM
Molecule: COc1cc(CCC(C)=O)ccc1O [Zingerone, reference compound]
- UVA/% Reduction in iCPDs vs. Control ([1]; 25 μg/ml): No effect
- UVB/% Reduction iCPDs vs. Control ([1]; 25 μg/ml): No effect
- UVA/% Reduction in dCPDs vs. control ([2]; time not given): No effect
- UVA/% Reduction in dCPDs vs. control ([4]; time not given): No effect
- UVA/% Reduction in iCPDs vs. Control ([3]; UVA): No effect
- UVB/% Reduction iCPDs vs. Control [3]: No effect

Molecule: CCOC(=O)C(Cc1cc(OC)c(OC)c(OC)c1)C(C)=O (centres unmarked) [Compound 8]
- reduction of NOX activity [6]: −14%
- reduction of NOX activity [7]: −17%
- UVA/% Reduction in iCPDs vs. Control ([1]; 50 μg/ml): 42%^+
- UVA/% Reduction in dCPDs vs. control, 0 hr. (Reduction in iCPDs) ([4]; 0 hr., product incubated for 24 hrs. plus UVA irradiation): ^+0 hr.: No effect
- UVA/% Reduction in dCPDs vs. control, 1 hr. ([4]; 1 hr., product incubated for 24 hrs. plus UVA irradiation): 1 hr.: ↓35%
- UVA/% Reduction in dCPDs vs. control, 2 hr. ([4]; 2 hr., product incubated for 24 hrs. plus UVA irradiation): 2 hr.: ↓52%
- UVA/% Reduction in dCPDs vs. control, 4 hr. ([4]; 4 hr., product incubated for 24 hrs. plus UVA irradiation): 4 hr.: ↓32%

Molecule: COc1cc(CC(C(C)=O)C(C)=O)cc(OC)c1OC [Compound 7]
- Antioxidant Power, Singlet oxygen [8]: 6,359+ μmole Trolox Equivalent/gram
- Singlet oxygen quenching ([8]; ±10% error): 6,359 μMole Trolox Equivalent/g
- % DNA strand breaks ([9]; 0.03 μg/ml): 33%
- % DNA strand protection ([9]; 0.03 μg/ml): 67%
- % DNA strand breaks ([9]; 0.1 μg/ml): 15%
- % DNA strand protection ([9]; 0.1 μg/ml): 85%

- Lipid peroxidation IC50 value [13]: 30 µg/mL
Molecule: Tocopherol
- Antioxidant Power, Singlet oxygen [8]: 1,110 μmole Trolox Equivalent/gram
- Antioxidant Power, Super oxide anion [10]: Not detected
- Antioxidant Power, Hydroxyl radicals [11]: Not detected
- Antioxidant Power, Peroxynitrite [12]: 1 μmole Trolox Equivalent/gram
- Antioxidant Power, Peroxyl radicals [14]: 813 μmole Trolox Equivalent/gram
